Data from patent US6737383B1, “Herbicidal oxadiazolidines” (priority 1999, dated 2004).

Assays:
morningglory = assay: Test B pre/postemergence morningglory; assay type: in vivo, Ipomoea hederacea
Summary of the method: (§1)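 Herbicidal effect was estimated by eye on a ten-point control scale after plants spent twelve to sixteen days in a greenhouse following soil or foliar treatment. Foliar sprays targeted plants at one to four leaves; all doses were formulated in a non-phytotoxic solvent with surfactant.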

rape = assay: Test B pre/postemergence rape; assay type: in vivo, Brassica napus
Summary of the method: as §1

smallflower flatsedge = assay: Test B flood test smallflower flatsedge; assay type: in vivo, Cyperus difformis; settings: for Plant response rating, S. Flatsedge (0 to 10 scale, 0 is no effect, 10 is complete control) / S. Flatsedge plant response rating (0 to 10 scale, 0 is no effect, 10 is complete control): visual evaluation after twelve to sixteen days; for S. Flatsedge plant response rating (0 to 10 scale, 0 is no effect, 10 is complete control): under heading Pre-emergence
Summary of the method: (§2)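 Plants were grown to the 2-leaf stage before treatment with test chemical, then held in a greenhouse for twelve to sixteen days. Injury was visually rated against untreated controls on a 0–10 scale, where 0 is no effect and 10 is complete control.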

bamyardgrass = assay: Test B flood test barnyardgrass; assay type: in vivo, Echinochloa crus-galli; settings: for Plant response rating, Barnyardgrass (0 to 10 scale, 0 is no effect, 10 is complete control) / Barnyardgrass plant response rating (0 to 10 scale, 0 is no effect, 10 is complete control): visual evaluation after twelve to sixteen days; for Barnyardgrass plant response rating (0 to 10 scale, 0 is no effect, 10 is complete control): under heading Pre-emergence
Summary of the method: as §2

[1] = Postemergence, Rate 250 g/ha, scale 0 to 10, 0 is no effect, 10 is complete control
[2] = Postemergence, Rate 500 g/ha, scale of 0 to 10 where 0 is no effect and 10 is complete control
[3] = Preemergence, Rate 62 g/ha, scale 0 to 10 (0 no effect, 10 complete control)
[4] = Preemergence, Rate 125 g/ha, scale of 0 to 10 where 0 is no effect and 10 is complete control
[5] = Preemergence, Rate 250 g/ha, scale 0 to 10, 0 is no effect, 10 is complete control
[6] = Preemergence, Rate 500 g/ha, scale 0 to 10, 0 is no effect, 10 is complete control
[7] = Rate 62 g/ha, Postemergence, scale of 0 to 10 where 0 is no effect and 10 is complete control
[8] = Rate 62 g/ha, flood test species, Pre-emergence
[9] = Rate 125 g/ha, flood test species
[10] = Rate 250 g/ha, Pre-emergence, flood-test species, scale 0 to 10, 0 is no effect, 10 is complete control
[11] = Rate 500 g/ha, Pre-emergence, flood test species, scale 0 to 10 (0 no effect, 10 complete control)
[12] = Postemergence, Rate 1000 g/ha, scale 0 to 10 (0 no effect, 10 complete control)
[13] = Preemergence, Rate 62 g/ha, scale of 0 to 10 where 0 is no effect and 10 is complete control
[14] = Preemergence, Rate 125 g/ha, 0 is no effect, 10 is complete control
[15] = Preemergence, Rate 500 g/ha, scale 0 to 10 (0 no effect, 10 complete control)
[16] = Rate 125 g/ha, Postemergence, scale 0 to 10
[17] = Rate 500 g/ha, Postemergence, scale 0 to 10
[18] = Rate 1000 g/ha, Preemergence, scale 0 to 10 (0 no effect, 10 complete control)
[19] = Rate 62 g/ha, headed Pre-emergence (flood test species), scale 0 to 10 (0 no effect, 10 complete control)
[20] = Rate 125 g/ha, Pre-emergence, flood test species, scale 0 to 10 where 0 is no effect and 10 is complete control
[21] = Postemergence, Rate 62 g/ha, scale 0 to 10, 0 is no effect, 10 is complete control
[22] = Postemergence, Rate 125 g/ha, scale of 0 to 10 where 0 is no effect and 10 is complete control
[23] = Postemergence, Rate 250 g/ha, scale of 0 to 10, 0 is no effect, 10 is complete control
[24] = Preemergence, Rate 250 g/ha, scale 0 to 10 (0 no effect, 10 complete control)
[25] = Preemergence, Rate 500 g/ha, scale of 0 to 10 where 0 is no effect and 10 is complete control
[26] = Rate 250 g/ha, Pre-emergence (flood test species), scale 0 to 10, 0 is no effect, 10 is complete control
[27] = Rate 500 g/ha, Pre-emergence section of Table B, 0 to 10 scale (0 no effect, 10 complete control)

CC1CC1Cn1c(=O)on(C(=O)N(c2ccc(F)cc2)C(C)C)c1=O (centres unmarked) [Compound 402]
5: Rape plant response rating (rape; [5]) | Plant response rating, Barnyardgrass (0 to 10 scale, 0 is no effect, 10 is complete control) (bamyardgrass; [8]) | Barnyardgrass plant response rating (0 to 10 scale, 0 is no effect, 10 is complete control) (bamyardgrass; [9])
1: Plant response rating, Rape (rape; [4]) | Rape plant response rating (rape; [7])
0: Plant response rating, Morningglory (morningglory; [3]) | Plant response rating, Morningglory (morningglory; [4]) | Plant response rating, Rape (rape; [3]) | Plant response rating, S. Flatsedge (0 to 10 scale, 0 is no effect, 10 is complete control) (smallflower flatsedge; [8]) | S. Flatsedge plant response rating (0 to 10 scale, 0 is no effect, 10 is complete control) (smallflower flatsedge; [9]) | S. Flatsedge plant response rating (smallflower flatsedge; [10])
3: Morningglory plant response rating (morningglory; [7])
2: Morningglory plant response rating (morningglory; [5]) | Morningglory plant response rating (morningglory; [6]) | S. Flatsedge plant response rating (smallflower flatsedge; [11])
10: Morningglory plant response rating (morningglory; [2])
9: Rape plant response rating (rape; [2]) | Barnyardgrass plant response rating (bamyardgrass; [11])
8: Plant response rating, Morningglory (morningglory; [1]) | Plant response rating, Rape (rape; [1]) | Rape plant response rating (rape; [6]) | Barnyardgrass plant response rating (bamyardgrass; [10])

CC(C)N(C(=O)n1oc(=O)n(C2CCCC(C(F)(F)F)C2)c1=O)c1ccc(F)cc1 (centres unmarked) [Compound 184]
0: Morningglory plant response rating (morningglory; [13]) | Morningglory plant response rating (0 to 10 scale) (morningglory; [14]) | Morningglory plant response rating (morningglory; [5]) | Morningglory plant response rating (morningglory; [15]) | Morningglory plant response rating (morningglory; [7]) | Rape plant response rating (rape; [13]) | Rape plant response rating (0 to 10 scale) (rape; [14]) | Rape plant response rating (rape; [5]) | Rape plant response rating (rape; [15]) | Rape plant response rating (rape; [7]) | Plant response rating, Rape (rape; [18]) | S. Flatsedge plant response rating (smallflower flatsedge; Pre-emergence, Rate 1000 g/ha, scale 0 to 10 (0 no effect, 10 complete control)) | S. Flatsedge plant response rating (smallflower flatsedge; [19]) | S. Flatsedge plant response rating (smallflower flatsedge; [20]) | S. Flatsedge plant response rating (smallflower flatsedge; [10]) | S. Flatsedge plant response rating (smallflower flatsedge; [11]) | Barnyardgrass plant response rating (bamyardgrass; [19]) | Barnyardgrass plant response rating (bamyardgrass; [20]) | Barnyardgrass plant response rating (bamyardgrass; [10]) | Barnyardgrass plant response rating (bamyardgrass; Rate 500 g/ha, listed under Postemergence (flood test species), scale 0 to 10)
2: Plant response rating, Morningglory (morningglory; [18]) | Rape plant response rating (rape; [16])
6: Morningglory plant response rating (morningglory; [16]) | Plant response rating (0 to 10; 0 is no effect, 10 is complete control), Morningglory (morningglory; Rate 250 g/ha, Postemergence) | Rape plant response rating (rape; [17]) | Plant response rating, Barnyardgrass (bamyardgrass; Rate 500 g/ha, headed Pre-emergence (flood test species), scale 0 to 10 (0 no effect, 10 complete control))
7: Morningglory plant response rating (morningglory; [17])
9: Morningglory plant response rating (morningglory; [12])
3: Rape plant response rating (rape; [12]) | Plant response rating (0 to 10; 0 is no effect, 10 is complete control), Rape (rape; Rate 250 g/ha, Postemergence) | Barnyardgrass plant response rating (bamyardgrass; Rate 1000 g/ha, Pre-emergence (as headed), scale 0 to 10)

CCOC(Cn1c(=O)on(C(=O)N(c2ccc(Cl)cc2)C(C)C)c1=O)OCC [Compound 633]
2: Plant response rating, Morningglory (morningglory; [22])
5: Morningglory plant response rating (morningglory; [23]) | Plant response rating, Morningglory (morningglory; [2])
0: Morningglory plant response rating (morningglory; [3]) | Morningglory plant response rating (morningglory; [4]) | Plant response rating, Morningglory (morningglory; [24]) | Plant response rating, Morningglory (morningglory; [25]) | Plant response rating, Rape (rape; [21]) | Plant response rating, Rape (rape; [22]) | Rape plant response rating (rape; [23]) | Plant response rating, Rape (rape; [2]) | Rape plant response rating (rape; [3]) | Rape plant response rating (rape; [4]) | Plant response rating, S. Flatsedge (0 to 10 scale, 0 is no effect, 10 is complete control) (smallflower flatsedge; [8]) | S. Flatsedge plant response rating (0 to 10 scale, 0 is no effect, 10 is complete control) (smallflower flatsedge; [9]) | S. Flatsedge plant response rating (smallflower flatsedge; [26]) | S. Flatsedge plant response rating (smallflower flatsedge; [27]) | Plant response rating, Barnyardgrass (0 to 10 scale, 0 is no effect, 10 is complete control) (bamyardgrass; [8]) | Barnyardgrass plant response rating (0 to 10 scale, 0 is no effect, 10 is complete control) (bamyardgrass; [9]) | Barnyardgrass plant response rating (bamyardgrass; [26]) | Barnyardgrass plant response rating (bamyardgrass; [27])
1: Plant response rating, Morningglory (morningglory; [21]) | Plant response rating, Rape (rape; [24])
4: Plant response rating, Rape (rape; [25])
